Results published in ChEMBL document CHEMBL1149017, “Herbicidal effects of geldanamycin and nigericin, antibiotics from Streptomyces hygroscopicus” (J Nat Prod, 1986).
Calls of active or inactive are those of the source. No cut-off for these calls is given here.

Columns and labels:
Rattus norvegicus = experiment: Acute toxicity in rat at 2500 to 5000 mg/kg, po; assay type: organism-based; design: dose 2500-5000 mg/kg, route oral; conditions: in vivo
Lepidium sativum [1] = experiment: Herbicidal activity against Lepidium sativum assessed as inhibition of radicle growth of seeds at 1 to 2 ppm after 69 to 75 hrs in dark; assay type: functional; design: scale not given: the % may be the effect or the level left
Lepidium sativum [2] = experiment: Herbicidal activity against Lepidium sativum assessed as inhibition of radicle growth of seed at 3 to 4 ppm after 69 to 75 hrs in dark; assay type: functional, organism-based
[3] = Toxicity in ip dosed mouse; assay type: organism-based; conditions: in vivo
Lepidium sativum [4] = experiment: Herbicidal activity against Lepidium sativum assessed as occurrence of browning and tissue necrosis; assay type: functional, organism-based

Q: What does the source list for `COC1=C2C[C@@H](C)C[C@H](OC)[C@H](O)[C@@H](C)/C=C(\C)[C@H](OC(N)=O)[C@@H](OC)/C=C\C=C(/C)C(=O)NC(=CC1=O)C2=O` [GELDANAMYCIN]?
A: Activity (Rattus norvegicus): Toxic; Activity (Lepidium sativum [1]): 50%; Activity (Lepidium sativum [2]): Active; LD50 [3]: 1 mg/kg

Q: With `CO[C@@H]1C[C@@H](C[C@H]2CC[C@H](C)[C@H]([C@@H](C)C(=O)O)O2)O[C@]2(O[C@](C)([C@H]3CC[C@@](C)([C@@H]4O[C@@H]([C@H]5O[C@@](O)(CO)[C@H](C)C[C@@H]5C)C[C@@H]4C)O3)C[C@H]2C)[C@@H]1C` [NIGERICIN] as the compound, how does the Activity (Lepidium sativum [1]) read?
A: 50%

Q: And the Activity (Lepidium sativum [2])?
A: Active

Q: What about the Activity (Lepidium sativum [4]) of the same compound?
A: inactive

Q: And the LD50 [3]?
A: 10 mg/kg
